Test results: paper PMC7340268, “Structural definition of polyspecific compensatory ligand recognition by P-glycoprotein” (IUCrJ, 2020)
Entries after “also recorded” stand apart in the source; their conditions may differ. Marks after values point to notes of the source that are not given here.

Columns and labels:
[1] = biological target: Pgp (PDB entry 4xwk) (Mus musculus, UniProt P21447); experiment: Authors' own occupancy refinement of the published Pgp-BDE-100 structure; format: binding; details: own refinement using the deposited structure factors
Text: X-ray diffraction data were collected at 100 K on beamline 23-ID-D at the Advanced Photon Source (APS). MAD scans were obtained from Pgp–BDE-100 co-crystals near the Br K edge to optimize for the strongest anomalous signal at the beginning of each data-collection session and whenever data were collected from a new mutant. The data were processed, integrated and scaled with HKL-2000 (Otwinowski & Minor, 1997[▸]). The Pgp structures were solved by molecular replacement using the previously solved BDE-100 complex structure (PDB entry 4xwk; Nicklisch et al., 2016[▸]) without the BDE-100 (Table 1 ▸) using an initial rigid-body refinement of the two pseudosymmetric halves of the protein. […] Phenix.elbow was used to produce ligand description dictionaries (Adams et al., 2010[▸]) and the placement of BDE-100 was verified by anomalous scattering of the Br atoms and OMIT density (see Fig. 1 ▸ for top views, Supplementary Fig. S1 for side views and Supplementary Fig. S2 for ligand F o − F c OMIT maps) calculated via CNS (Brünger et al., 1998[▸]). […] All models were subjected to rigid-body, xyz, group B-factor and individual B-factor refinement using phenix.refine (Afonine et al., 2010[▸]) and the model geometry was monitored using MolProbity (Chen et al., 2010[▸]) in the absence of the ligand. […] Figures were prepared and r.m.s.d.s were calculated in PyMOL (version 1.8; Schrödinger). […]

[2] = biological target: T1, Pgp C952A/F979A (Mus musculus, UniProt P21447, C952A/F979A); experiment: Co-crystal structure, occupancy refinement of BDE-100; format: binding
T1 construct: 6xHis (C); made in house; host or cells: Pichia pastoris
Description: (§1) To reproduce the binding of BDE-100 to Pgp and maintain crystal isomorphism, we utilized the reductive-methylation protocol of Ward et al. (2013[▸]) with some modifications. Fresh dimethylamine–borane (20 mM; Sigma–Aldrich) and 16% formaldehyde (40 mM; Thermo Scientific) were added to 1–3 mg mouse Pgp. The mixture was incubated for 2 h at 4°C and further dimethylamine–borane and formaldehyde were added after 2 h. After incubation for 16 h at 4°C, the reaction was quenched with cold glycine on ice for 2 h and flushed with SEC buffer (10 mM Tris–HCl pH 7.5, 75 mM NaCl, 0.0375% DDM, 0.04% sodium cholate, 0.1 mM TCEP). The eluted protein was concentrated to 2–3 mg ml^−1 and incubated with 0.5 mM BDE-100 (AccuStandard) dissolved in DMSO in the dark for 16 h at 4°C. The precipitate was centrifuged and the extracted sample was […] 1:10 in SEC buffer to give a final concentration of 10–13 mg ml^−1. Crystallization was set up using 3 µl sitting drops in 24-well Cryschem plates (Hampton Research) with a 1:1 ratio of protein solution and reservoir solution [0.1 M HEPES, 50 mM lithium sulfate, 10 mM EDTA, 26–28.5%(w/v) polyethylene glycol (PEG) 600 pH 7.9–8.4]. Crystals could be visualized after ∼3 days at 4°C and reached full size in ∼4 weeks.
(§2) X-ray diffraction data were collected at 100 K on beamline 23-ID-D at the Advanced Photon Source (APS). MAD scans were obtained from Pgp–BDE-100 co-crystals near the Br K edge to optimize for the strongest anomalous signal at the beginning of each data-collection session and whenever data were collected from a new mutant. The data were processed, integrated and scaled with HKL-2000 (Otwinowski & Minor, 1997[▸]). The Pgp structures were solved by molecular replacement using the previously solved BDE-100 complex structure (PDB entry 4xwk; Nicklisch et al., 2016[▸]) without the BDE-100 (Table 1 ▸) using an initial rigid-body refinement of the two pseudosymmetric halves of the protein. Subsequent rounds included the full molecule with chains linked including ligands. Phenix.elbow was used to produce ligand description dictionaries (Adams et al., 2010[▸]) and the placement of BDE-100 was verified by anomalous scattering of the Br atoms and OMIT density (see Fig. 1 ▸ for top views, Supplementary Fig. S1 for side views and Supplementary Fig. S2 for ligand F o − F c OMIT maps) calculated via CNS (Brünger et al., 1998[▸]). The structures agreed with the previously solved structure as our control mutant (C952A) contained BDE-100 in the same position based on experimental data. All models were subjected to rigid-body, xyz, group B-factor and individual B-factor refinement using phenix.refine (Afonine et al., 2010[▸]) and the model geometry was monitored using MolProbity (Chen et al., 2010[▸]) in the absence of the ligand. The BDE-100 atoms were then modeled and the structures were subjected to the same refinement steps including occupancy refinement using an occupancy of 0.5 as the starting point. […] We conclude there is a sufficient data-to-parameter ratio to refine both B factors and occupancy for the BDE-100 ligand in PDB entry 4xwk as well as in all of our structures. Our own refinement of PDB entry 4xwk yielded a ligand occupancy of 0.66 and our control mutant C952A agreed very well, with a refined occupancy of 0.67 (for a full list, see Table 2 ▸). The refined occupancy values for ligands also agreed very well with the intensities of their respective anomalous difference Fourier electron densities. Data statistics and parameters supporting the quality of the structures are presented in Table 1 ▸ and Supplementary Table S1. Figures were prepared and r.m.s.d.s were calculated in PyMOL (version 1.8; Schrödinger). […]

[3] = biological target: T2, Pgp C952A/Y306A (Mus musculus, UniProt P21447, C952A/Y306A); experiment: as above; format: binding
T2 construct: 6xHis (C); made in house; host or cells: Pichia pastoris
Description: as §1, §2

[4] = biological target: T3, Pgp C952A/F724A (Mus musculus, UniProt P21447, C952A/F724A); experiment: as above; format: binding
T3 construct: 6xHis (C); made in house; host or cells: Pichia pastoris
Description: as §1, §2

[5] = biological target: T4, Pgp C952A/Y303A (Mus musculus, UniProt P21447, C952A/Y303A); experiment: as above; format: binding
T4 construct: 6xHis (C); made in house; host or cells: Pichia pastoris
Description: as §1, §2

[6] = biological target: T5, Pgp C952A (Mus musculus, UniProt P21447, C952A); experiment: as above; format: binding
T5 construct: 6xHis (C); made in house; host or cells: Pichia pastoris
Description: as §1, §2

[7] = biological target: T6, Pgp C952A/F728A (Mus musculus, UniProt P21447, C952A/F728A); experiment: as above; format: binding
T6 construct: 6xHis (C); made in house; host or cells: Pichia pastoris
Description: as §1, §2

[8] = tested on: wild-type Pgp; parameters: method as in Nicklisch et al., 2016; details: ref Nicklisch et al., 2016, cited from earlier work
[9] = tested on: Pgp C952A control and the five aromatic replacement mutants (Y303A, Y306A, F724A, F728A, F979A); experiment: Effect of BDE-100 on basal and verapamil-stimulated ATPase activity; format: biochemical, mouse; details: BDE-100 at 50, 75 and 100 µM
Description: Figure 3 The effect of BDE-100 on the verapamil-stimulated ATPase activity of the six Pgp mutations. […]. The level of BDE-100 inhibition of the verapamil-stimulated ATPase EC50 for each mutant is also shown. P values were determined from a two-tailed unequal variance test: ****, p ≤ 0.0001; ***, p ≤0.0001–0.001; *, p ≤0.05–0.01. […]
(Figure 4) were chosen to yield a more finely sampled dose response for this figure. BDE-100 alone had little effect on Pgp ATPase activity. Inhibitory effects of BDE-100 at 50 µM, 75 µM and 100 µM on the Verapamil-EC50 specific to each mutant were determined. All measurements were determined with seven independent measurements (n=7).
(1 picture or pasted object on this page, not shown here)

T6 sequence (P21447 whole entry F728A/C952A): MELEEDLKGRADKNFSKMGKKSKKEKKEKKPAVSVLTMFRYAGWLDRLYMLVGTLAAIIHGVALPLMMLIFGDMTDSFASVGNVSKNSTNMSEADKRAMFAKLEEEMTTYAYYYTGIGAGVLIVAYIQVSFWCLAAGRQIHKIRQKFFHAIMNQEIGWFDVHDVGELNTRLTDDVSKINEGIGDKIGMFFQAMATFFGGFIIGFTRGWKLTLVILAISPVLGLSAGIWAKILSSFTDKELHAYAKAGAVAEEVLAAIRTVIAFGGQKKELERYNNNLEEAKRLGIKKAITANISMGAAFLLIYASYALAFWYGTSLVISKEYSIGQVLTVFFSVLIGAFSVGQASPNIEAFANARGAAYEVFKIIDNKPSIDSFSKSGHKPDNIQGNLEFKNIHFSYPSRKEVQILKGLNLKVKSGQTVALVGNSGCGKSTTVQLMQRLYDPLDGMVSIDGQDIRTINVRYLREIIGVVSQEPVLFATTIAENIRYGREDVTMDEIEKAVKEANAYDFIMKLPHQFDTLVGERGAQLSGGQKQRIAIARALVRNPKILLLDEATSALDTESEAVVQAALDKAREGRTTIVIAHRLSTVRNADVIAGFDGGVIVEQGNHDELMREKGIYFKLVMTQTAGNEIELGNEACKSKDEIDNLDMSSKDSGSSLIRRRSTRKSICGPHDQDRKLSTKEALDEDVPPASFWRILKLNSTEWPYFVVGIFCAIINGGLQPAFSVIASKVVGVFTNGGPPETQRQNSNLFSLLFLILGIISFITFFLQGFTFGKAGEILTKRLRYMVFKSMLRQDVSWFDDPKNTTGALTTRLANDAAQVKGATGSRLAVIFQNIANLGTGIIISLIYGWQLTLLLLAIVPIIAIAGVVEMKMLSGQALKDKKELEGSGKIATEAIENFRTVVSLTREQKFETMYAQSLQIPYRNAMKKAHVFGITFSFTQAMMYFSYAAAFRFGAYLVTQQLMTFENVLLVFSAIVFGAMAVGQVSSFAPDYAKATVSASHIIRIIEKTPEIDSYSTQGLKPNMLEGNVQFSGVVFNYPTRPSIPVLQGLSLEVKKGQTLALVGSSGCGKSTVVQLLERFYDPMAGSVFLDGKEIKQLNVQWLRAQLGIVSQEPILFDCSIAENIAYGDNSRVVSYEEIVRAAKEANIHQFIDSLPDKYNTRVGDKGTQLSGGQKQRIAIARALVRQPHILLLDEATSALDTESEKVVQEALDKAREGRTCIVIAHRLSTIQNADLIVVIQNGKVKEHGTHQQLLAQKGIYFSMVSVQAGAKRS
T5 sequence (P21447 whole entry C952A): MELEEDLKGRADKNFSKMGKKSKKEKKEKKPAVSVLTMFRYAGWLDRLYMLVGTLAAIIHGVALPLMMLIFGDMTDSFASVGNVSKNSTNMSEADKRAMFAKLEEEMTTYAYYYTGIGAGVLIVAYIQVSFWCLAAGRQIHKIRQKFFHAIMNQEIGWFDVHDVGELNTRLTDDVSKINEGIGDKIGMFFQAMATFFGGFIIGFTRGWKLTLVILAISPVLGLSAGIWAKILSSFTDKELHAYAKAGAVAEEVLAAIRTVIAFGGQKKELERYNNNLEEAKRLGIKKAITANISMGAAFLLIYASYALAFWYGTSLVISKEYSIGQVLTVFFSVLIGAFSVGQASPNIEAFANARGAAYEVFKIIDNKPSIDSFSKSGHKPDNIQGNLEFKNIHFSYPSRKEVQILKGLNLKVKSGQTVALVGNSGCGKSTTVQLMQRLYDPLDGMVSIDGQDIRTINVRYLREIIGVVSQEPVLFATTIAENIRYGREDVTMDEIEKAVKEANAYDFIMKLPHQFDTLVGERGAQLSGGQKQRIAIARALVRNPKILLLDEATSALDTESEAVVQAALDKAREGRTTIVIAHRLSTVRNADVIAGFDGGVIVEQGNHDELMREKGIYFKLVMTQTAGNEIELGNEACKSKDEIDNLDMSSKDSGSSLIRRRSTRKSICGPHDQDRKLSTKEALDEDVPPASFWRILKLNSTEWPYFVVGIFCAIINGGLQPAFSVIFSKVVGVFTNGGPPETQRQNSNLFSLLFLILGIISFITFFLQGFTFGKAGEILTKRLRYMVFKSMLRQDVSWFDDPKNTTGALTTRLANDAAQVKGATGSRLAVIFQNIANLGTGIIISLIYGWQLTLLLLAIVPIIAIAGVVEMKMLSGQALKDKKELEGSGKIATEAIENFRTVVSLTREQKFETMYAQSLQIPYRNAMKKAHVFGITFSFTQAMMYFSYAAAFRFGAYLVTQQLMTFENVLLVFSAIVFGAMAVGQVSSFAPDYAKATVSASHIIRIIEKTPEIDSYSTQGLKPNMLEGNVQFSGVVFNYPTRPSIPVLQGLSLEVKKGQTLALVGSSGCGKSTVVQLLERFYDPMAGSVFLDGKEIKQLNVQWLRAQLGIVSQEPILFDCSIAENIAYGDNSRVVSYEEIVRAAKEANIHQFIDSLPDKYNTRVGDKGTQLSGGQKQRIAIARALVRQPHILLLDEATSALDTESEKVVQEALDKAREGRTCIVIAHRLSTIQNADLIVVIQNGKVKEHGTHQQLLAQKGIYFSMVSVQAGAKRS
Sequence of Pgp (PDB entry 4xwk) (P21447 whole entry): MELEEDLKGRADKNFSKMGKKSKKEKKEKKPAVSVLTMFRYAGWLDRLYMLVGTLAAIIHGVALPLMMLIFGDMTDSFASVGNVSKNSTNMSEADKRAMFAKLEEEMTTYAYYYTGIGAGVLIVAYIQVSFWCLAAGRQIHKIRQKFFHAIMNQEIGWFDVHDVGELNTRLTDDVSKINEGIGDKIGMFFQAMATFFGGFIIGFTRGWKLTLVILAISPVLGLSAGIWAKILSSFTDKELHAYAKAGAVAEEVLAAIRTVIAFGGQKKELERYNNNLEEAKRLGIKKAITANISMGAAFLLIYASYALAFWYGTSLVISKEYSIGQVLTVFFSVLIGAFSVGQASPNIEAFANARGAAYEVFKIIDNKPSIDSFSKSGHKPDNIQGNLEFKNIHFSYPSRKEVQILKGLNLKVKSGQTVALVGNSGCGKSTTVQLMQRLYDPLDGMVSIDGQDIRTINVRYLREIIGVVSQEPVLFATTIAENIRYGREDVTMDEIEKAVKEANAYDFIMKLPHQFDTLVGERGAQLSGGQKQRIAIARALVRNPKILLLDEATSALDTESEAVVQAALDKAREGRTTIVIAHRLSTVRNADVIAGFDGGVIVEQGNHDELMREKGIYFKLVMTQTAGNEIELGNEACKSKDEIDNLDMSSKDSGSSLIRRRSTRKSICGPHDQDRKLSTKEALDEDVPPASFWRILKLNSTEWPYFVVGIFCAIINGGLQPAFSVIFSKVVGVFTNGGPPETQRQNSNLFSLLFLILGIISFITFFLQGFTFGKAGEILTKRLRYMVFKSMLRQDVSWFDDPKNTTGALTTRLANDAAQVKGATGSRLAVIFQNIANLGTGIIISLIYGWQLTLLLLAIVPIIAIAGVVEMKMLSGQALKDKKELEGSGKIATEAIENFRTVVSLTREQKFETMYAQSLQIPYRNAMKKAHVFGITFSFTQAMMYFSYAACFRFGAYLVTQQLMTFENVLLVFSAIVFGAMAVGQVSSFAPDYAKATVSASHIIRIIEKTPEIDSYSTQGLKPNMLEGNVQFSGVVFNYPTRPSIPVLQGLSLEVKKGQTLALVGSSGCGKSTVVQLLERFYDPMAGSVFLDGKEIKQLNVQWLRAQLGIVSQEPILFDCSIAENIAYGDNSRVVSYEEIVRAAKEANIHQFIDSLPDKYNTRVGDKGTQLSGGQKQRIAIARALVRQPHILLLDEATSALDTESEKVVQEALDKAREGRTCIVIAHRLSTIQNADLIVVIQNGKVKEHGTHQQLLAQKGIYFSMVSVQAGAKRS
T4 sequence (P21447 whole entry Y303A/C952A): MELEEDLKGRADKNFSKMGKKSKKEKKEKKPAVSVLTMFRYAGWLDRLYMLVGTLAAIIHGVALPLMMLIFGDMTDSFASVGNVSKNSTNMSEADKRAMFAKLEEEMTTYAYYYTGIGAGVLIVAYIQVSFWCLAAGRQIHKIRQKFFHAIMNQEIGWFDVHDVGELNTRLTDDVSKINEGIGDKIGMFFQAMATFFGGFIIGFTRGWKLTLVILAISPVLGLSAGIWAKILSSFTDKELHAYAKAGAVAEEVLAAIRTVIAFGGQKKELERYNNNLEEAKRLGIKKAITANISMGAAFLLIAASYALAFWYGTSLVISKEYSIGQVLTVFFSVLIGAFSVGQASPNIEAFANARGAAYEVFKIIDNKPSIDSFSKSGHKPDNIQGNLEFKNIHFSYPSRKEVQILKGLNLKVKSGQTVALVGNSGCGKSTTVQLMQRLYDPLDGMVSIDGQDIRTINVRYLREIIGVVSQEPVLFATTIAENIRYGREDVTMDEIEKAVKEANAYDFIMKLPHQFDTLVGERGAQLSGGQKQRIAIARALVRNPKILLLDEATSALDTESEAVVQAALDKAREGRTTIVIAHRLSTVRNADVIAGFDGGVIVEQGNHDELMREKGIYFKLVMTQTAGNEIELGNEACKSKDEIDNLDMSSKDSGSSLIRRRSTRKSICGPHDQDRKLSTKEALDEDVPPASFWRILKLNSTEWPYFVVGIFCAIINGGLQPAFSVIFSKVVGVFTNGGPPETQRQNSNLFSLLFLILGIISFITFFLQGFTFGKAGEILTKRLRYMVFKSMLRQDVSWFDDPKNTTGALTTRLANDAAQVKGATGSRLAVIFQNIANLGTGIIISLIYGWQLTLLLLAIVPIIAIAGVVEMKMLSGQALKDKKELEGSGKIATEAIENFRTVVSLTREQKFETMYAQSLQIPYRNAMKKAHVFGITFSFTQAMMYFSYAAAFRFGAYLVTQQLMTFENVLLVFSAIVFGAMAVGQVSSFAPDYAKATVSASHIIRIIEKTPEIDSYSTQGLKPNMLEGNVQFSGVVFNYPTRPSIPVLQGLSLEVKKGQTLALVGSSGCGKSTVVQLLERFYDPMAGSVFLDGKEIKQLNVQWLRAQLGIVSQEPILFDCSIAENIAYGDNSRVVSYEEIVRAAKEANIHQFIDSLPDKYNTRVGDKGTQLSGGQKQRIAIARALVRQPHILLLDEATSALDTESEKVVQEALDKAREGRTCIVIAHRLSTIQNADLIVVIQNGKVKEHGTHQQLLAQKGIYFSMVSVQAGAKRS

## Brc1ccc(Oc2c(Br)cc(Br)cc2Br)c(Br)c1 [BDE-100]
[1]
  Occupancy of BDE-100, site 1: 66%
[1]; as fraction
  Refined ligand occupancy, site 1: 0.66
[2]
  Occupancy of BDE-100, site 1: 65%
[3]
  Occupancy of BDE-100, site 1: 68%
  Occupancy of BDE-100, site 2: 49%
[4]
  Occupancy of BDE-100, site 3: 35%
[5]
  Occupancy of BDE-100, site 1: 64%
  Occupancy of BDE-100, site 2: 56%
[6]; C952A
  Occupancy of BDE-100, site 1: 67%
[6]; C952A control, as fraction
  Refined ligand occupancy, site 1: 0.67
[7]
  Occupancy of BDE-100, site 1 (designated site 1A): 53 ^† %
  Occupancy of BDE-100, site 2: 48%
[8]
  Inhibition of verapamil-stimulated ATPase activity: potent inhibitor
[8]; wild-type Pgp
  Effect of BDE-100 alone on basal ATPase activity: did not increase the basal ATPase activity
[9]; absence of verapamil, C952A control and five mutants
  Effect of BDE-100 alone on basal ATPase activity: did not increase the basal ATPase activity; also recorded: little effect
[9]; at the verapamil EC50 determined for each mutant
  Effect of BDE-100 on verapamil-stimulated ATPase activity: inhibited; also recorded: significant inhibitory effect
